Test system: caecal microbiota cultures
Experiment: 16S sequencing of total (DNA) and active (cDNA) community in caecal microbiota cultures, BBR vs Control
Format: cell-based, broiler chicken
Details: 48 h

## COc1ccc2cc3[n+](cc2c1OC)CCc1cc2c(cc1-3)OCO2 [Berberine, Berberine chloride]
  L2FC BBRDNA vs ControlDNA: 0.44
  L2FC BBRRNA vs BBRDNA: 3.40
  L2FC BBRRNA vs ControlRNA: 1.34
OTU 40798 (Butyricicoccus), active (cDNA) community
  L2FC BBRRNA vs ControlRNA: 0.45
OTU 40798 (Butyricicoccus), active vs total community in BBR group
  L2FC BBRRNA vs BBRDNA: -4.40
OTU 40798 (Butyricicoccus), total (DNA) community
  L2FC BBRDNA vs ControlDNA: 0.83
OTU 109633 (Eubacterium), active (cDNA) community
  L2FC BBRRNA vs ControlRNA: 1.92
OTU 109633 (Eubacterium), active vs total community in BBR group
  L2FC BBRRNA vs BBRDNA: -0.64
OTU 109633 (Eubacterium), total (DNA) community
  L2FC BBRDNA vs ControlDNA: 1.75
OTU 129401 (Family_Ruminococcaceae), active (cDNA) community
  L2FC BBRRNA vs ControlRNA: 1.00
OTU 129401 (Family_Ruminococcaceae), active vs total community in BBR group
  L2FC BBRRNA vs BBRDNA: 1.99
OTU 129401 (Family_Ruminococcaceae), total (DNA) community
  L2FC BBRDNA vs ControlDNA: 0.84
OTU 157573 (Alistipes), active (cDNA) community
  L2FC BBRRNA vs ControlRNA: -0.29
OTU 157573 (Alistipes), active vs total community in BBR group
  L2FC BBRRNA vs BBRDNA: 1.91
OTU 157573 (Alistipes), total (DNA) community
  L2FC BBRDNA vs ControlDNA: 0.19
OTU 157772 (uncultured Ruminococcaceae), active (cDNA) community
  L2FC BBRRNA vs ControlRNA: -0.27
OTU 157772 (uncultured Ruminococcaceae), active vs total community in BBR group
  L2FC BBRRNA vs BBRDNA: 1.68
OTU 157772 (uncultured Ruminococcaceae), total (DNA) community
  L2FC BBRDNA vs ControlDNA: -0.36
OTU 180099 (uncultured Lachnospiraceae), active (cDNA) community
  L2FC BBRRNA vs ControlRNA: -0.96
OTU 180099 (uncultured Lachnospiraceae), active vs total community in BBR group
  L2FC BBRRNA vs BBRDNA: -0.59
OTU 180099 (uncultured Lachnospiraceae), total (DNA) community
  L2FC BBRDNA vs ControlDNA: -1.55
OTU 186881 (Anaerofilum), active (cDNA) community
  L2FC BBRRNA vs ControlRNA: -1.11
OTU 186881 (Anaerofilum), active vs total community in BBR group
  L2FC BBRRNA vs BBRDNA: -0.59
OTU 186881 (Anaerofilum), total (DNA) community
  L2FC BBRDNA vs ControlDNA: -1.53
OTU 193240 (Butyricicoccus), active (cDNA) community
  L2FC BBRRNA vs ControlRNA: -1.08
OTU 193240 (Butyricicoccus), active vs total community in BBR group
  L2FC BBRRNA vs BBRDNA: -1.42
OTU 193240 (Butyricicoccus), total (DNA) community
  L2FC BBRDNA vs ControlDNA: -1.34
OTU 196831 (Oscillibacter), active (cDNA) community
  L2FC BBRRNA vs ControlRNA: 0.14
OTU 196831 (Oscillibacter), active vs total community in BBR group
  L2FC BBRRNA vs BBRDNA: 2.09
OTU 196831 (Oscillibacter), total (DNA) community
  L2FC BBRDNA vs ControlDNA: 0.24
OTU 199555 ([Ruminococcus] torques group), active (cDNA) community
  L2FC BBRRNA vs ControlRNA: -1.39
OTU 199555 ([Ruminococcus] torques group), active vs total community in BBR group
  L2FC BBRRNA vs BBRDNA: -0.15
OTU 199555 ([Ruminococcus] torques group), total (DNA) community
  L2FC BBRDNA vs ControlDNA: -1.72
OTU 233953 (Erysipelatoclostridium), active (cDNA) community
  L2FC BBRRNA vs ControlRNA: -1.85
OTU 233953 (Erysipelatoclostridium), active vs total community in BBR group
  L2FC BBRRNA vs BBRDNA: -0.21
OTU 233953 (Erysipelatoclostridium), total (DNA) community
  L2FC BBRDNA vs ControlDNA: -1.14
OTU 234912 (Ruminococcaceae UCG-013), active (cDNA) community
  L2FC BBRRNA vs ControlRNA: -2.52
OTU 234912 (Ruminococcaceae UCG-013), active vs total community in BBR group
  L2FC BBRRNA vs BBRDNA: -0.46
OTU 234912 (Ruminococcaceae UCG-013), total (DNA) community
  L2FC BBRDNA vs ControlDNA: -3.19
OTU 240271 (uncultured Ruminococcaceae), active (cDNA) community
  L2FC BBRRNA vs ControlRNA: 0.20
OTU 240271 (uncultured Ruminococcaceae), active vs total community in BBR group
  L2FC BBRRNA vs BBRDNA: 1.89
OTU 240271 (uncultured Ruminococcaceae), total (DNA) community
  L2FC BBRDNA vs ControlDNA: 0.33
OTU 249142 ([Ruminococcus] torques group), active (cDNA) community
  L2FC BBRRNA vs ControlRNA: -3.17
OTU 249142 ([Ruminococcus] torques group), active vs total community in BBR group
  L2FC BBRRNA vs BBRDNA: -0.87
OTU 249142 ([Ruminococcus] torques group), total (DNA) community
  L2FC BBRDNA vs ControlDNA: -2.54
OTU 293975 (uncultured Lachnospiraceae), active (cDNA) community
  L2FC BBRRNA vs ControlRNA: -2.01
OTU 293975 (uncultured Lachnospiraceae), active vs total community in BBR group
  L2FC BBRRNA vs BBRDNA: 0.18
OTU 293975 (uncultured Lachnospiraceae), total (DNA) community
  L2FC BBRDNA vs ControlDNA: -1.62
OTU 294545 (Ruminiclostridium), active (cDNA) community
  L2FC BBRRNA vs ControlRNA: -0.23
OTU 294545 (Ruminiclostridium), active vs total community in BBR group
  L2FC BBRRNA vs BBRDNA: 1.73
OTU 294545 (Ruminiclostridium), total (DNA) community
  L2FC BBRDNA vs ControlDNA: 0.21
OTU 308157 (Butyricicoccus), active (cDNA) community
  L2FC BBRRNA vs ControlRNA: 0.37
OTU 308157 (Butyricicoccus), active vs total community in BBR group
  L2FC BBRRNA vs BBRDNA: -1.55
OTU 308157 (Butyricicoccus), total (DNA) community
  L2FC BBRDNA vs ControlDNA: 0.47
OTU 315223 (Anaerotruncus), active (cDNA) community
  L2FC BBRRNA vs ControlRNA: 0.81
OTU 315223 (Anaerotruncus), active vs total community in BBR group
  L2FC BBRRNA vs BBRDNA: 2.28
OTU 315223 (Anaerotruncus), total (DNA) community
  L2FC BBRDNA vs ControlDNA: 0.02
OTU 349246 (Ruminiclostridium 9), active (cDNA) community
  L2FC BBRRNA vs ControlRNA: -1.09
OTU 349246 (Ruminiclostridium 9), active vs total community in BBR group
  L2FC BBRRNA vs BBRDNA: 1.04
OTU 349246 (Ruminiclostridium 9), total (DNA) community
  L2FC BBRDNA vs ControlDNA: -0.39
OTU 350256 (Intestinimonas), active (cDNA) community
  L2FC BBRRNA vs ControlRNA: -0.58
OTU 350256 (Intestinimonas), active vs total community in BBR group
  L2FC BBRRNA vs BBRDNA: 1.65
OTU 350256 (Intestinimonas), total (DNA) community
  L2FC BBRDNA vs ControlDNA: -0.23
OTU 356073 ([Eubacterium] xylanophilum group), active (cDNA) community
  L2FC BBRRNA vs ControlRNA: -1.98
OTU 356073 ([Eubacterium] xylanophilum group), active vs total community in BBR group
  L2FC BBRRNA vs BBRDNA: -1.05
OTU 356073 ([Eubacterium] xylanophilum group), total (DNA) community
  L2FC BBRDNA vs ControlDNA: -1.79
OTU 362793 (Oscillibacter), active (cDNA) community
  L2FC BBRRNA vs ControlRNA: 0.13
OTU 362793 (Oscillibacter), active vs total community in BBR group
  L2FC BBRRNA vs BBRDNA: 2.11
OTU 362793 (Oscillibacter), total (DNA) community
  L2FC BBRDNA vs ControlDNA: 0.33
OTU 364341 (Family_Ruminococcaceae), active (cDNA) community
  L2FC BBRRNA vs ControlRNA: 0.25
OTU 364341 (Family_Ruminococcaceae), active vs total community in BBR group
  L2FC BBRRNA vs BBRDNA: 1.56
OTU 364341 (Family_Ruminococcaceae), total (DNA) community
  L2FC BBRDNA vs ControlDNA: 0.20
OTU 368615 (uncultured Lachnospiraceae), active (cDNA) community
  L2FC BBRRNA vs ControlRNA: -0.96
OTU 368615 (uncultured Lachnospiraceae), active vs total community in BBR group
  L2FC BBRRNA vs BBRDNA: -1.57
OTU 368615 (uncultured Lachnospiraceae), total (DNA) community
  L2FC BBRDNA vs ControlDNA: -0.96
OTU 408513 (Ruminiclostridium 9), active (cDNA) community
  L2FC BBRRNA vs ControlRNA: -3.12
OTU 408513 (Ruminiclostridium 9), active vs total community in BBR group
  L2FC BBRRNA vs BBRDNA: 1.43
OTU 408513 (Ruminiclostridium 9), total (DNA) community
  L2FC BBRDNA vs ControlDNA: -2.29
OTU 443620 (uncultured Ruminococcaceae), active (cDNA) community
  L2FC BBRRNA vs ControlRNA: -0.74
OTU 443620 (uncultured Ruminococcaceae), active vs total community in BBR group
  L2FC BBRRNA vs BBRDNA: 0.61
OTU 443620 (uncultured Ruminococcaceae), total (DNA) community
  L2FC BBRDNA vs ControlDNA: 0.83
OTU 461487 (Ruminococcaceae UCG-014), active (cDNA) community
  L2FC BBRRNA vs ControlRNA: -0.55
OTU 461487 (Ruminococcaceae UCG-014), active vs total community in BBR group
  L2FC BBRRNA vs BBRDNA: -3.30
OTU 461487 (Ruminococcaceae UCG-014), total (DNA) community
  L2FC BBRDNA vs ControlDNA: -0.15
OTU 510295 (Fournierella), active (cDNA) community
  L2FC BBRRNA vs ControlRNA: 0.35
OTU 510295 (Fournierella), active vs total community in BBR group
  L2FC BBRRNA vs BBRDNA: -2.43
OTU 510295 (Fournierella), total (DNA) community
  L2FC BBRDNA vs ControlDNA: 0.86
OTU 519763 (Intestinimonas), active (cDNA) community
  L2FC BBRRNA vs ControlRNA: 1.22
OTU 519763 (Intestinimonas), active vs total community in BBR group
  L2FC BBRRNA vs BBRDNA: 2.52
OTU 519763 (Intestinimonas), total (DNA) community
  L2FC BBRDNA vs ControlDNA: 1.10
